Values quoted from earlier work, collected in patent US8637551B2, “2-(1,2-benzisoxazol-3-yl)benzylamine derivatives” (Merck Sharp & Dohme B.V., priority 2009, dated 2014).

Legend:
[1] = test system: rat (Chung) model of neuropathic pain; conditions: for anti-allodynic effects in the Chung model: clinically used reference drugs
[2] = test system: nerve injured myelinated DRG; conditions: Yagi et al, 2000
[3] = test system: rat, mild thermal injury model
[4] = test system: A-beta and A-delta fibres; conditions: Lee et al 2005
[5] = test system: Brennan model; conditions: local administration to the sciatic nerve 4 h after surgery; Dalle & Eisenach 2005
[6] = test system: rat CFA model of inflammatory pain

SMILES: NCC1(CC(=O)O)CCCCC1 [gabapentin]
- anti-allodynic effects in the Chung model [1]: anti-allodynic effects

SMILES: CNCC[C@H](Oc1cccc2ccccc12)c1cccs1 [duloxetine]
- anti-allodynic effects in the Chung model [1]: anti-allodynic effects

SMILES: CN1CC[C@]23c4c5ccc(O)c4O[C@H]2[C@@H](O)C=C[C@H]3[C@H]1C5 [morphine]
- anti-allodynic effects in the Chung model [1]: anti-allodynic effects

SMILES: CCN(c1ccccc1)c1cc(=NC)n(C)c(C)n1.Cl [ZD 7288]
- spontaneous activity [2]: reduces spontaneous activity
- spontaneous pain [3]: blocks spontaneous pain
- reversal of mechanical allodynia ([1]; intraperitoneal, Chung/von Frey, Chaplan et al 2003): dose-dependently reverses mechanical allodynia
- firing frequency of ectopic discharges [4]: reduced the firing frequency of ectopic discharges
- mechanical allodynia [5]: attenuates mechanical allodynia
- allodynia [6]: suppresses allodynia
